How the values were obtained:
Format in all cases: cell-based
CCRF-CEM = assay: NCI 60 cell line screen (SRB), Leukemia
K-562 = assay: NCI 60 cell line screen (SRB), Leukemia; settings: K-562 (Leukemia)
A549/ATCC = assay: NCI 60 cell line screen (SRB), Non-Small Cell Lung Cancer
HOP-62 = assay: as above; settings: HOP-62 (Non-Small Cell Lung Cancer)
HOP-92 = assay: as above; settings: HOP-92 (Non-Small Cell Lung Cancer)
NCI-H226 = assay: as above
NCI-H322M = assay: as above
NCI-H460 = assay: as above
HCC-2998 = assay: NCI 60 cell line screen (SRB), Colon Cancer; settings: HCC-2998 (Colon Cancer)
HCT-15 = assay: NCI 60 cell line screen (SRB), Colon Cancer; settings: HCT-15 (Colon Cancer)
HT29 = assay: NCI 60 cell line screen (SRB), Colon Cancer
SW-620 = assay: NCI 60 cell line screen (SRB), Colon Cancer; settings: SW-620 (Colon Cancer)
SF-268 = assay: NCI 60 cell line screen (SRB), CNS Cancer; settings: SF-268 (CNS Cancer)
SNB-19 = assay: NCI 60 cell line screen (SRB), CNS Cancer; settings: SNB-19 (CNS Cancer)
MALME-3M = assay: NCI 60 cell line screen (SRB), Melanoma; settings: MALME-3M (Melanoma)
M14 = assay: NCI 60 cell line screen (SRB), Melanoma
SK-MEL-2 = assay: NCI 60 cell line screen (SRB), Melanoma; settings: SK-MEL-2 (Melanoma)
SK-MEL-28 = assay: NCI 60 cell line screen (SRB), Melanoma; settings: SK-MEL-28 (Melanoma)
SK-MEL-5 = assay: NCI 60 cell line screen (SRB), Melanoma; settings: SK-MEL-5 (Melanoma)
UACC-62 = assay: NCI 60 cell line screen (SRB), Melanoma; settings: UACC-62 (Melanoma)
IGROVI = assay: NCI 60 cell line screen (SRB), Ovarian Cancer
OVCAR-3 = assay: NCI 60 cell line screen (SRB), Ovarian Cancer; settings: OVCAR-3 (Ovarian Cancer)
OVCAR-4 = assay: NCI 60 cell line screen (SRB), Ovarian Cancer; settings: OVCAR-4 (Ovarian Cancer)
OVCAR-8 = assay: NCI 60 cell line screen (SRB), Ovarian Cancer; settings: OVCAR-8 (Ovarian Cancer)
786-0 = assay: NCI 60 cell line screen (SRB), Renal Cancer; settings: 786-0 (Renal Cancer)
A498 = assay: NCI 60 cell line screen (SRB), Renal Cancer
CAKI-1 = assay: NCI 60 cell line screen (SRB), Renal Cancer; settings: CAKI-1 (Renal Cancer)
MCF7 = assay: NCI 60 cell line screen (SRB), Breast Cancer
MCF7/ADR-RES = assay: NCI 60 cell line screen (SRB), Breast Cancer
HS 578T = assay: NCI 60 cell line screen (SRB), Breast Cancer; settings: HS 578T (Breast Cancer)
MDA-N = assay: NCI 60 cell line screen (SRB), Breast Cancer
60 cell line panel = assay: NCI 60 cell line screen, values over the whole panel; settings: mean value over the cell line panel

In the case of COC1OC2(C)CCC3CCCC(CCOCCC4CCCC5CCC6(C)OOC45C(OC)O6)C31OO2 (stereo not shown) [Compound 6, Trioxane Ether Dimer], the Log10GI50 (CCRF-CEM) is reported as −6.27 M, the Log10LC50 (CCRF-CEM) is reported as >−4.00 M and the Log10TGI (CCRF-CEM) is reported as −4.61 M. For the same molecule, the Log10GI50 (K-562) was −6.75 M, the Log10LC50 (K-562) was >−4.00 M and the Log10TGI (K-562) was >−4.00 M. The Log10GI50 (A549/ATCC) was −5.79 M, the Log10LC50 (A549/ATCC) was >−4.00 M and the Log10TGI (A549/ATCC) was >−4.00 M. For the same molecule, the Log10GI50 (HOP-62) was −4.92 M, the Log10LC50 (HOP-62) was >−4.00 M and the Log10TGI (HOP-62) was >−4.00 M. For the same molecule, the Log10GI50 (HOP-92) was −5.51 M, the Log10LC50 (HOP-92) was >−4.00 M and the Log10TGI (HOP-92) was −4.17 M. For the same molecule, the Log10GI50 (NCI-H226) was −5.36 M, the Log10LC50 (NCI-H226) was >−4.00 M and the Log10TGI (NCI-H226) was >−4.00 M. For the same molecule, the Log10GI50 (NCI-H322M) was >−4.00 M, the Log10LC50 (NCI-H322M) was >−4.00 M and the Log10TGI (NCI-H322M) was >−4.00 M. For the same molecule, the Log10GI50 (NCI-H460) was −6.23 M, the Log10LC50 (NCI-H460) was >−4.00 M and the Log10TGI (NCI-H460) was >−4.00 M. For the same molecule, the Log10GI50 (HCC-2998) was −5.94 M, the Log10LC50 (HCC-2998) was −4.04 M and the Log10TGI (HCC-2998) was −4.90 M. The Log10GI50 (HCT-15) was −7.28 M, the Log10LC50 (HCT-15) was >−4.00 M and the Log10TGI (HCT-15) was >−4.00 M. For the same molecule, the Log10GI50 (HT29) was −6.24 M, the Log10LC50 (HT29) was >−4.00 M and the Log10TGI (HT29) was >−4.00 M. The Log10GI50 (SW-620) was −6.66 M, the Log10LC50 (SW-620) was >−4.00 M and the Log10TGI (SW-620) was >−4.00 M. The Log10GI50 (SF-268) was −5.07 M, the Log10LC50 (SF-268) was >−4.00 M and the Log10TGI (SF-268) was >−4.00 M. For the same molecule, the Log10GI50 (SNB-19) was −5.01 M, the Log10LC50 (SNB-19) was >−4.00 M and the Log10TGI (SNB-19) was >−4.00 M. For the same molecule, the Log10GI50 (MALME-3M) was −5.69 M, the Log10LC50 (MALME-3M) was >−4.00 M and the Log10TGI (MALME-3M) was >−4.00 M. The Log10GI50 (M14) was −5.59 M, the Log10LC50 (M14) was >−4.00 M and the Log10TGI (M14) was >−4.00 M. For the same molecule, the Log10GI50 (SK-MEL-2) was −5.86 M, the Log10LC50 (SK-MEL-2) was >−4.00 M and the Log10TGI (SK-MEL-2) was −4.13 M. For the same molecule, the Log10GI50 (SK-MEL-28) was −4.24 M, the Log10LC50 (SK-MEL-28) was >−4.00 M and the Log10TGI (SK-MEL-28) was >−4.00 M. For the same molecule, the Log10GI50 (SK-MEL-5) was −7.39 M, the Log10LC50 (SK-MEL-5) was −4.15 M and the Log10TGI (SK-MEL-5) was −4.90 M. The Log10GI50 (UACC-62) was −6.46 M, the Log10LC50 (UACC-62) was >−4.00 M and the Log10TGI (UACC-62) was >−4.00 M. For the same molecule, the Log10GI50 (IGROVI) was −5.37 M, the Log10LC50 (IGROVI) was >−4.00 M and the Log10TGI (IGROVI) was −4.13 M. The Log10GI50 (OVCAR-3) was −6.10 M, the Log10LC50 (OVCAR-3) was >−4.00 M and the Log10TGI (OVCAR-3) was >−4.00 M. The Log10GI50 (OVCAR-4) was −5.11 M, the Log10LC50 (OVCAR-4) was >−4.00 M and the Log10TGI (OVCAR-4) was >−4.00 M. The Log10GI50 (OVCAR-8) was −6.33 M, the Log10LC50 (OVCAR-8) was >−4.00 M and the Log10TGI (OVCAR-8) was >−4.00 M. The Log10GI50 (786-0) was −5.65 M, the Log10LC50 (786-0) was >−4.00 M and the Log10TGI (786-0) was −4.53 M. For the same molecule, the Log10GI50 (A498) was >−4.00 M, the Log10LC50 (A498) was >−4.00 M and the Log10TGI (A498) was >−4.00 M. For the same molecule, the Log10GI50 (CAKI-1) was −5.44 M, the Log10LC50 (CAKI-1) was >−4.00 M and the Log10TGI (CAKI-1) was >−4.00 M. For the same molecule, the Log10GI50 (MCF7) was −6.37 M, the Log10LC50 (MCF7) was >−4.00 M and the Log10TGI (MCF7) was >−4.00 M. For the same molecule, the Log10GI50 (MCF7/ADR-RES) was −6.13 M, the Log10LC50 (MCF7/ADR-RES) was >−4.00 M and the Log10TGI (MCF7/ADR-RES) was >−4.00 M. The Log10LC50 (HS 578T) was >−4.00 M, the Log10TGI (HS 578T) was >−4.00 M and the Log10GI50 (MDA-N) was −6.19 M. The Log10LC50 (MDA-N) was >−4.00 M, the Log10TGI (MDA-N) was >−4.00 M and the “Log10LC50 MG MID” value (60 cell line panel) was −4.05 M. The “Log10TGI MG MID” value (60 cell line panel) was −4.26 M.
With C[C@@H]1CC[C@H]2[C@@H](C)C(=O)O[C@@H]3O[C@@]4(C)CC[C@@H]1[C@]32OO4 [QHS, 3,6,9-trimethyl-9,10b-epidioxyperhydropyrano[4,3,2-jk]benzoxepin-2-one, reference compound] the Log10GI50 (K-562) was −4.33 M, the Log10LC50 (K-562) was >−4.00 M and the Log10TGI (K-562) was −4.00 M. The Log10GI50 (A549/ATCC) was −4.17 M, the Log10LC50 (A549/ATCC) was >−4.00 M and the Log10TGI (A549/ATCC) was >−4.00 M. For the same molecule, the Log10GI50 (HOP-62) was >−4.00 M, the Log10LC50 (HOP-62) was >−4.00 M and the Log10TGI (HOP-62) was >−4.00 M. For the same molecule, the Log10GI50 (HOP-92) was >−4.00 M, the Log10LC50 (HOP-92) was >−4.00 M and the Log10TGI (HOP-92) was >−4.00 M. For the same molecule, the Log10GI50 (NCI-H226) was >−4.00 M, the Log10LC50 (NCI-H226) was >−4.00 M and the Log10TGI (NCI-H226) was >−4.00 M. The Log10GI50 (NCI-H460) was >−4.00 M, the Log10LC50 (NCI-H460) was >−4.00 M and the Log10TGI (NCI-H460) was >−4.00 M. For the same molecule, the Log10GI50 (HCC-2998) was >−4.00 M, the Log10LC50 (HCC-2998) was >−4.00 M and the Log10TGI (HCC-2998) was >−4.00 M. For the same molecule, the Log10GI50 (HCT-15) was >−4.00 M, the Log10LC50 (HCT-15) was >−4.00 M and the Log10TGI (HCT-15) was >−4.00 M. For the same molecule, the Log10GI50 (HT29) was >−4.00 M, the Log10LC50 (HT29) was >−4.00 M and the Log10TGI (HT29) was >−4.00 M. The Log10GI50 (SW-620) was >−4.00 M, the Log10LC50 (SW-620) was >−4.00 M and the Log10TGI (SW-620) was >−4.00 M. For the same molecule, the Log10GI50 (SNB-19) was >−4.00 M, the Log10LC50 (SNB-19) was >−4.00 M and the Log10TGI (SNB-19) was >−4.00 M. The Log10LC50 (MALME-3M) was >−4.00 M, the Log10TGI (MALME-3M) was −4.06 M and the Log10LC50 (M14) was >−4.00 M. The Log10TGI (M14) was >−4.00 M, the Log10LC50 (SK-MEL-2) was >−4.00 M and the Log10TGI (SK-MEL-2) was >−4.00 M. For the same molecule, the Log10GI50 (SK-MEL-28) was >−4.00 M, the Log10LC50 (SK-MEL-28) was >−4.00 M and the Log10TGI (SK-MEL-28) was >−4.00 M. The Log10GI50 (SK-MEL-5) was −4.10 M, the Log10LC50 (SK-MEL-5) was >−4.00 M and the Log10TGI (SK-MEL-5) was >−4.00 M. For the same molecule, the Log10GI50 (UACC-62) was >−4.00 M, the Log10LC50 (UACC-62) was >−4.00 M and the Log10TGI (UACC-62) was >−4.00 M. For the same molecule, the Log10GI50 (IGROVI) was −4.31 M, the Log10LC50 (IGROVI) was >−4.00 M and the Log10TGI (IGROVI) was >−4.00 M. The Log10GI50 (OVCAR-8) was >−4.00 M, the Log10LC50 (OVCAR-8) was >−4.00 M and the Log10TGI (OVCAR-8) was >−4.00 M. The Log10GI50 (786-0) was >−4.00 M, the Log10LC50 (786-0) was >−4.00 M and the Log10TGI (786-0) was >−4.00 M. The Log10GI50 (A498) was >−4.00 M, the Log10LC50 (A498) was >−4.00 M and the Log10TGI (A498) was >−4.00 M. The Log10GI50 (MCF7) was >−4.00 M, the Log10LC50 (MCF7) was >−4.00 M and the Log10TGI (MCF7) was >−4.00 M. For the same molecule, the Log10GI50 (HS 578T) was >−4.00 M, the Log10LC50 (HS 578T) was >−4.00 M and the Log10TGI (HS 578T) was >−4.00 M. For the same molecule, the Log10GI50 (MDA-N) was >−4.00 M, the Log10LC50 (MDA-N) was >−4.00 M and the Log10TGI (MDA-N) was >−4.00 M.

Reference: patent USRE38117E1, “Trioxane dimer compound having antiproliferative and antitumor activities” (Hauser, Inc., priority 1995, dated 2003)
